The experiment addresses Histamine H3 receptor. Description: In Vitro Histamine H3 Receptor Binding Analysis ([3H]-N-alpha-methylhistamine displacement, rat cortical membranes). The note with it: [3H]-N-alpha-methylhistamine 0.8-1.2 nM, pH 7.4, 40 min, 25° C, read-out: Histamine H3 Receptor Binding Affinities, H3 Receptor Ki. As to the method:
Histamine H3 receptor affinity was determined in rat cortical membranes using the H3 selective agonist ligand, [^3 H]-N^α -methylhistamine (78.9 Ci/mole, DuPont NEN Research Products, Boston, Mass.) according to the method of West et al., (1990) Mol. Pharmacol. 38: 610-613 with modifications. Briefly, animals were sacrificed by decapitation and the cerebral cortex was rapidly removed. Rat cortices were mechanically homogenized with an Omni 1000 motor driven homogenizer in 10 volumes (wt/vol) of Krebs-Ringers Hepes buffer (pH 7.4) containing the following protease inhibitors: EDTA (10 mM), PMSF (0.1 mM), chymostatin (0.2 mg/50 mL) and leupeptin (0.2 mg/50 mL). The homogenate was centrifuged in a Sorvall at ~40,000×g for 30 min. The pellet was resuspended by mechanical homogenization in 25 mL water and lysed on ice for 30 min. The homogenate was recentrifuged and the membrane lysis was repeated. The membranes were recentrifuged and the final pellet was resuspended in 14 volumes of water to give approximately 200 μg protein/100 μl final concentration. The suspension was stored at -80° prior to use. Protein concentrations were determined by Coomassie Plus Protein Assay (Pierce, Rockford, Ill.).
Nonspecific binding (NSB) was accounted for by the inclusion of thioperamide (10 μM). Samples were incubated for 40 minutes at 25° C. The samples were filtered through glass fiber strips, pre-washed with 0.3% polyethyleneimine, using a Brandell cell harvester. The filters were rapidly washed three times with 4 ml of 25 mm Tris buffer containing 145 mM NaCl (pH 7.4, 4° C.). Filters were transferred to polyethylene mini-vials and counted in 3.5 ml of scintillation fluid (Ecolume, ICN Biomedicals, Inc.). […] Saturation and competition experiments were analyzed with the ReceptorFit saturation and competition curve fitting programs (Lundon Software, Ind., Cleveland, Ohio).

Structures are written as SMILES. Where a name gives a salt, the structure may show the parent alone.

A word on the Ki: it is a dissociation constant, usually derived from enzyme kinetics or from competition with a known ligand. As for `C[C@@H](NC(=O)C1CC1c1c[nH]cn1)C1CCCCC1` (mixture of isomers) [Example 6, N-[(R)-1-Cyclohexylethyl]-3-(1H-imidazol-4-yl)-trans-(2R,3R)-cyclopropanamide and N-[(R)-1-Cyclohexylethyl]-3-(1H-imidazol-4-yl)-trans-(2S,3S)-cyclopropanamide hydrochloride], the Ki was determined as 70 ± 8.6 nM. Then `C[C@H](NC(=O)C1CC1c1c[nH]cn1)C1CCCCC1` (mixture of isomers) [Example 7, N-[(S)-1-Cyclohexylethyl]-3-(1H-imidazol-4-yl)-trans-(2R,3R)-cyclopropanamide and N-[(S)-1-Cyclohexylethyl]-3-(1H-imidazol-4-yl)-trans-(2S,3S)-cyclopropanamide hydrochloride], with 146 ± 13 nM; and `O=C(CCCC1CCCCC1)[C@@H]1C[C@H]1c1c[nH]cn1` (racemic) [Example 10, (±)-trans-4-cyclohexyl-1-(2-imidazol-4-ylcyclopropyl)butan-1-one], with 97 ± 21 nM. Consider `CN(CC1CCCCC1)C(=O)[C@@H]1C[C@H]1c1c[nH]cn1` (racemic) [Example 11, (±)-trans-N-(cyclohexylmethyl)(2-imidazol-4-ylcyclopropyl)-N-methylformamide], for which the Ki came out at 134 ± 13 nM.

In the case of `c1nc([C@@H]2C[C@H]2COCCCC2CCCCC2)c[nH]1` (racemic) [Example 18, (±)-trans-(3-cyclohexylpropoxy)(2-imidazol-4-ylcyclopropyl)methane], the Ki worked out at 240 ± 6 nM. Then `OC(CCCC1CCCCC1)[C@@H]1C[C@H]1c1c[nH]cn1` (mixture of isomers) [Example 19, (±)-trans-4-cyclohexyl-1-(2-imidazol-4-ylcyclopropyl)butan-1-ol], with 160 ± 9 nM; and `O=C(NCc1ccccc1)[C@@H]1C[C@H]1c1c[nH]cn1` (relative stereo) [Example 1, N-(1-Benzyl)-3-[(1H-imidazol-4-yl)]-(2R,3R)-trans-cyclopropanamide and N-(1-Benzyl)-3-[(1H-imidazol-4-yl)]-(2S,3S)-trans-cyclopropanamide hydrochloride], with 53 ± 2 nM; and `O=C(NCC1CCCCC1)[C@@H]1C[C@H]1c1c[nH]cn1` (relative stereo) [Example 2, (±)-trans-N-(cyclohexylmethyl)(2-imidazol-4-ylcyclopropyl)formamide], with 37 ± 4 nM. The result for `CC1CCCCN1CCCNC(=O)[C@@H]1C[C@H]1c1c[nH]cn1` (relative stereo) [Example 3, (±)-trans-(2-imidazol-4-ylcyclopropyl)-N-(3-((±)-2-methylpiperidyl)formamide] reads 659 ± 52 nM; that for `O=C(NCCCN1CCOCC1)[C@@H]1C[C@H]1c1c[nH]cn1` (relative stereo) [Example 4, (±)-trans-(2-imidazol-4-ylcyclopropyl)-N-(3-morpholin-4-ylpropyl)formamide], 1400 ± 158 nM. The result for `O=C(Nc1ccccc1)[C@@H]1C[C@H]1c1c[nH]cn1` (relative stereo) [Example 5, N-(phenyl)-3-(1H-imidazol-4-yl)-trans-(2R,3R)-cyclopropanamide and N-(phenyl)-3-(1H-imidazol-4-yl)-trans-(2S,3S)-cyclopropanamide hydrochloride] reads 267 ± 26 nM; that for `O=C(NCC12CC3CC(CC(C3)C1)C2)[C@@H]1C[C@H]1c1c[nH]cn1` (relative stereo) [Example 8, N-[1-Adamantylmethyl]-3-(1H-imidazol-4-yl)-trans-(2R,3R)-cyclopropanamide hydrochloride and N-[1-Adamantylmethyl]-3-(1H-imidazol-4-yl)-trans-(2S,3S)-cyclopropanamide hydrochloride], 55 ± 6 nM. With `O=C(NCCc1ccccc1)[C@@H]1C[C@H]1c1c[nH]cn1` (relative stereo) [Example 9, (±)-trans-(2-imidazol-4-ylcyclopropyl)-N-(2-phenylethyl)formamide], the Ki worked out at 163 ± 19 nM. The result for `C(=C/[C@@H]1C[C@H]1c1c[nH]cn1)/CCC1CCCCC1` (relative stereo) [Example 16, (±)-trans-4-(2-(4-cyclohexylbut-cis-1-enyl)cyclopropyl)imidazole] reads 12.2 ± 1 nM; that for `C(=C\[C@@H]1C[C@H]1c1c[nH]cn1)/CCC1CCCCC1` (relative stereo) [Example 17, (±)-trans-4-(2-(4-cyclohexylbut-trans-1-enyl)cyclopropyl)imidazole], 11 ± 1 nM; that for `O=C(N[C@@H]1C[C@H]1c1c[nH]cn1)OCc1ccccc1` (relative stereo) [Example 26, (±)-trans-N-(2-imidazol-4ylcyclopropyl)(phenylmethoxy)formamide], 5.8 ± 0.4 nM. Take `O=C(NCCCC1CCCCC1)[C@@H]1C[C@H]1c1c[nH]cn1` (relative stereo) [Example 29, N-[3-cyclohexylpropyl]-3(R)-[1H-imidazoyl-4-yl]-2(R)-cyclopropanamide and N-[3-Cyclohexylpropyl]-3(S)-[1H-imidazoyl-4-yl]-2(R)-cyclopropanamide]: the Ki was determined as 36 ± 8 nM.

For the compound `O=C(NCCC1=CCCCC1)[C@@H]1C[C@H]1c1c[nH]cn1` (relative stereo) [Example 31, N-[2-Cyclohex-1-enyl-ethyl]-3(R)-[1H-imidazol-4-yl]-2(R)-cyclopropanamide HCl salt and N-[2-Cyclohex-1-enyl-ethyl]-3(S)-[1H-imidazol-4-yl]-2(S)-cyclopropanamide HCl salt], the Ki came to 294 ± 26 nM. Then `O=C(NCC1CC1)[C@@H]1C[C@H]1c1c[nH]cn1` (relative stereo) [Example 32, (±)-trans-N-(cyclopropylmethyl)(2-imidazol-4-ylcyclopropyl)formamide], with 876 ± 158 nM; and `O=C(NCCCc1ccccc1)[C@@H]1C[C@H]1c1c[nH]cn1` (relative stereo) [Example 33, (±)-trans-(2-imidazol-4-ylcyclopropyl)-N-(3-phenylpropyl)formamide], with 197 ± 23 nM. Then `O=C(NCCc1c[nH]cn1)[C@@H]1C[C@H]1c1c[nH]cn1` (relative stereo) [Example 34, (±)-trans-(2-imidazol-4-ylcyclopropyl)-N-(2-imidazol-4-ylethyl)formamide], with 227 ± 26 nM. Then `O=C(NCCc1c[nH]c2ccccc12)[C@@H]1C[C@H]1c1c[nH]cn1` (relative stereo) [Example 35, (±)-trans-(2-imidazol-4-ylcyclopropyl)-N-(2-indol-3-ylethyl)formamide], with 44 ± 73 nM; and `O=C(NCC(O)CC1CCCCC1)[C@@H]1C[C@H]1c1c[nH]cn1` (relative stereo) [Example 36, (±)-trans-N-(3-cyclohexyl-2-(±)-hydroxypropyl)(2-imidazol-4-ylcyclopropyl)formamide], with 145 nM; and `O=C(NCCCCC1CCCCC1)[C@@H]1C[C@H]1c1c[nH]cn1` (relative stereo) [Example 37, (±)-trans-N-(4-cyclohexylbutyl)(2-imidazol-4-ylcyclopropyl)formamide], with 68 nM. As to `O=C(NCC1CCCCC1)[C@H]1C[C@@H]1c1c[nH]cn1` [Example 2a], the Ki was 23 ± 1 nM. Then `O=C(NCC1CCCCC1)[C@@H]1C[C@H]1c1c[nH]cn1` [Example 2b], with 176 ± 9 nM. The result for `NC(CC1CCCCC1)C(=O)NC1CC1c1c[nH]cn1` [Example 12, (1R,2R)-trans-2(S)-amino-3-cyclohexyl-N-(2-imidazol-4-ylcyclopropyl)propanamide] reads 1.85 ± 0.5 nM. Then `NC(CC1CCCCC1)C(=O)NC1CC1c1c[nH]cn1` [Example 13, (1S,2S)-trans-2(S)-amino-3-cyclohexyl-N-(2-imidazol-4-ylcyclopropyl)propanamide], with 21.5 ± 1.8 nM. In the case of `O=C(N[C@H]1C[C@@H]1c1c[nH]cn1)[C@@H]1CC2CCCCC2N1` (stereo partly drawn) [Example 14, (2R,3R)-trans-(7-azabicyclo[43.0]non-(S)-8-yl)-N-(2-imidazol-4-ylcyclopropyl)formamide], the Ki is 8.5 ± 0.7 nM. Then `O=C(N[C@@H]1C[C@H]1c1c[nH]cn1)[C@@H]1CC2CCCCC2N1` (stereo partly shown) [Example 15], with 37 ± 4 nM; and `NC(C=CC1CC1c1c[nH]cn1)CC1CCCCC1` [Example 20, (1R,2R)-trans-1-cyclohexyl-4-(2-imidazol-4-ylcyclopropyl)but-trans-3-en-2(S)-ylamine], with 0.37 ± 0.2 nM; and `NC(C=CC1CC1c1c[nH]cn1)CC1CCCCC1` [Example 21, 1(R)-[1H-imidazol-4-yl]-2(R)-cyclopropyl-5-(S)-amino-6-cyclohexyl-3-cis-hexene], with 97.7 ± 28 nM. Then `C(=CC1CC1c1c[nH]cn1)CCC1CCCCC1` [Example 22, (1R,2R)-trans--4-(2-(4-cyclohexylbut-trans-1-enyl)cyclopropyl)imidazole], with 2.4 ± 0.2 nM; and `C(=CC1CC1c1c[nH]cn1)CCC1CCCCC1` [Example 23, (1R,2R)-trans-4-(2-(4-cyclohexylbut-cis-1-enyl)cyclopropyl)imidazole], with 6.2 ± 0.8 nM.

(Values after patent US5990317A, “2-(1H-4(5)-imidazoyl) cyclopropyl compounds” (Gliatech, Inc., priority 1998, dated 1999).)
